These results are taken from paper PMC5298231, “The Malaria Parasite's Lactate Transporter PfFNT Is the Target of Antiplasmodial Compounds Identified in Whole Cell Phenotypic Screens” (PLoS Pathogens, 2017).

Assay [1] relates to MMV007839-selected culture B (PfFNT Gly107Ser). Put plainly: Parasite proliferation assay, MMV007839-selected culture B. In kind it is cell-based, Plasmodium falciparum. Particulars: MMV007839-selected culture B; mean ± SEM; read-out: IC50 value, growth inhibition. The protocol:
(§1) Parasite proliferation was measured in 96-well plates using a fluorescent DNA-intercalating dye. The assays were initiated with erythrocytes infected with predominantly ring-stage parasites, and the starting parasitaemia was 0.5–1% and the haematocrit was 1%.
For MMV007839-selected culture A, the drug concentration was increased by 5 nM increments on Day 18, Day 21, and every two days thereafter. […] The cultures were provided with fresh medium and blood and diluted to reduce the parasitaemia as needed.

Assay [2] concerns erythrocytes infected with 3D7 trophozoites (extracellular medium). Kind of assay: LC-MS metabolite profiling, extracellular medium of parasitised erythrocyte suspensions. Particulars: 6 μM.
The subject of assay [3] is PfFNT^Gly107Ser mutant parasites (MMV007839-selected culture B). Put plainly: L-[14C]lactate uptake by isolated PfFNT Gly107Ser mutant parasites. Particulars: read-out: IC50, inhibition of L-[14C]lactate transport, pH 6.1, 4°C, 20 s, mean ± SEM.
In another assay the test system is 3D7 parasites. Put plainly: Parasite proliferation assay, 3D7. Format: cell-based, Plasmodium falciparum. Particulars: 3D7 (our laboratory); mean ± SEM; read-out: IC50 value, growth inhibition. Here is the method: as §1
The subject of another assay is PfENT1. Kind of assay: [3H]hypoxanthine uptake by Xenopus oocytes expressing PfENT1. In kind it is cell-based, Plasmodium falciparum. Particulars: 1 μM and 4 μM; pH 6.0, 30 min. From the text:
(PfCRT; from the chloroquine-resistant Dd2 strain) and on [^3H]hypoxanthine transport by oocytes expressing the P. falciparum equilibrative nucleoside/nucleobase transporter PfENT1 [27, 28].
The oocyte expression vectors containing PfFNT, PfENT1 and PfCRT were made previously. The Gly107Ser mutant form of PfFNT was generated through site-directed mutagenesis of the oocyte expression vector containing wild-type (3D7) PfFNT using primers 9 and 10 (S2 Table). Oocytes were harvested from adult female Xenopus laevis frogs and prepared as described previously. cRNA was made using the mMessage mMachine T7 transcription kit and the MEGAclear kit (Ambion) and microinjected into oocytes as outlined elsewhere. The amount of cRNA injected (per oocyte) was 30 ng for PfFNT, 10 ng for PfENT1, and 20 ng for PfCRT. The uptake of radiolabelled substrates was measured 2–5 days post-injection at 27.5°C in ND96 buffer (containing 96 mM NaCl, 2 mM KCl, 1 mM MgCl2, 1.8 mM CaCl2, 10 mM MES and 10 mM Tris-base; pH-adjusted to the value specified in the relevant Figure legends). […] Each experiment used ten oocytes for each condition tested. The influx of the radiolabelled substrate was halted by removing the reaction buffer and washing the oocytes twice in ice-cold ND96 buffer (3.5 mL). The oocytes were then transferred to separate wells of a 96-well plate, lysed with 10% SDS, and the radioactivity measured as described previously.
The data are averaged from four to five independent experiments (performed using oocytes from different frogs) and are shown + SEM. In B, the uptake of [^3H]hypoxanthine (0.36 μM) was measured over 30 min at pH 6.0. […] The data are averaged from three to six independent experiments (performed using oocytes from different frogs) and are shown + SEM. […] (TIF) Click here for additional data file.

For assay [4], the system named is 3D7 P. falciparum trophozoites. Kind of assay: Cytosolic pH (pHcyt) measurement in BCECF-loaded saponin-isolated trophozoites.
Another assay has as its target T1, PfFNT^Gly107Ser (Plasmodium falciparum, UniProt O77389, G107S).
T1 construct: expressed in transfected cells; host or cells: Xenopus laevis oocytes (cRNA microinjected, 30 ng)
T1 sequence (O77389 1-309 G107S): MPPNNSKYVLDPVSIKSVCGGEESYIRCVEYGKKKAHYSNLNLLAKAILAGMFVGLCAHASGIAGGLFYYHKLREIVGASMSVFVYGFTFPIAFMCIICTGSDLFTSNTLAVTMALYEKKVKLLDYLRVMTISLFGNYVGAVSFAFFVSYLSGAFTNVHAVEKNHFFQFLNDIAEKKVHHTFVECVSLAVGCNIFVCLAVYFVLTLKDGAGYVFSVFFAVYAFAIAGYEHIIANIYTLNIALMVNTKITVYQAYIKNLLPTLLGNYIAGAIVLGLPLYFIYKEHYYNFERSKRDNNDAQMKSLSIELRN
Put plainly: PfFNT-mediated L-[14C]lactate uptake by Xenopus oocytes expressing PfFNT Gly107Ser. Format: cell-based. Particulars: PfFNT Gly107Ser in Xenopus oocytes; pH 6.4, 27.5°C, 10 min; mean ± SEM, n = 4; read-out: IC50, inhibition of PfFNT-mediated L-[14C]lactate transport. Here is the method:
The PfFNT-mediated uptake of L-[^14C]lactate by oocytes expressing native PfFNT (black symbols) or oocytes expressing PfFNT^Gly107Ser (white symbols) was measured in the presence of a range of different concentrations of MMV007839 (A) and MMV000972 (B). […] To enable a visual comparison between the native PfFNT and PfFNT^Gly107Ser datasets, only part of the concentration range used for the latter is shown in the main panels. The insets show the data obtained for PfFNT^Gly107Ser over the full concentration range tested. In all cases, the data are averaged from four independent experiments (using oocytes from different frogs) and are shown ± SEM. The uptake was measured at 27.5°C over 10 min at pH 6.4 using 2.7 μM L-[^14C]lactate and 600 μM unlabelled L-lactate.
The oocyte expression vectors containing PfFNT, PfENT1 and PfCRT were made previously. […] The uptake of radiolabelled substrates was measured 2–5 days post-injection at 27.5°C in ND96 buffer (containing 96 mM NaCl, 2 mM KCl, 1 mM MgCl2, 1.8 mM CaCl2, 10 mM MES and 10 mM Tris-base; pH-adjusted to the value specified in the relevant Figure legends). […] The oocytes were then transferred to separate wells of a 96-well plate, lysed with 10% SDS, and the radioactivity measured as described previously.

Take `COc1ccc2c(c1)OC(O)(C(F)(F)C(F)(F)F)CC2=O` (stereo not drawn) [MMV007839]: the IC50 – broadly, the concentration that inhibits the measured activity by half – in assay [1] was 37.5 ± 2.7 µM; in assay [3], 16.3 ± 4.4 µM; in the assay with 3D7 parasites, 0.26 ± 0.03 µM; at PfFNT^Gly107Ser, 1.3 ± 0.2 µM. For the same molecule, in assay [2] (not statistically significant), the “Extracellular lactate level, treated vs untreated” value is “decreased”. The “Extracellular pyruvate level, treated vs untreated” value in assay [2] (not statistically significant) is “increased”. For the same molecule, the “Extracellular α-ketoglutarate level, treated vs untreated” value in assay [2] (not statistically significant) is “decreased”. In assay [2] (statistically significant), the “Extracellular 3-phosphoglycerate level, treated vs untreated” value is “increased”. Besides, in assay [2] (statistically significant), the “Extracellular phosphoenolpyruvate level, treated vs untreated” value is “increased”. The “Inhibition of [3H]hypoxanthine uptake by PfENT1-expressing oocytes” value with PfENT1 was “not inhibiting”. The “Lactate-induced abrupt acidification of parasite cytosol after pre-treatment” value in assay [4] (2.5 μM pre-treatment, 10 mM L-lactate, 4°C) is “no such abrupt acidification”. Besides, the “Rate of cytosolic acidification after addition of lactate” value in assay [4] (2.5 μM, 4°C, 10 mM L-lactate, mean ± SEM, n = 3) turned out to be 0.011 ± 0.004 pH unit/min. For the same molecule, the “Rate of cytosolic acidification before addition of lactate” value in assay [4] (2.5 μM, 4°C, mean ± SEM, n = 3) was found to be 0.011 ± 0.003 pH unit/min. Further, the “Cytosolic pH restored after restoration of glucose” value in assay [4] (2.5 μM, glucose (22 mM) restored to glucose-deprived parasites, gradual alkalinisation after initial acidification of ~2 min) is reported as “approximately 7.1”. Also, the “Effect on cytosolic pH in glucose-containing medium” value in assay [4] (glucose-containing medium, 37°C (Fig 2B,C: 1 μM)) was “cytosolic acidification”.
